Measured values from PubChem BioAssay (NCI).
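Method: 48-hour compound exposure of cells in 96-well plates, five concentrations, linear interpolation of endpoints. TGI marks complete inhibition of growth.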

How the values were obtained:
Experiment in all cases: DTP human tumour cell line panel, 48 h
[1] = system: A498 renal
[2] = system: A549 NSCLC
[3] = system: ACHN renal
[4] = system: BT-549 breast
[5] = system: CAKI-1 renal
[6] = system: CCRF-CEM leukemia
[7] = system: COLO 205 colon
[8] = system: DU-145 prostate
[9] = system: HCT-15 colon
[10] = system: HL-60(TB) leukemia
[11] = system: HOP-62 NSCLC
[12] = system: HOP-92 NSCLC
[13] = system: HS 578T breast
[14] = system: HT29 colon
[15] = system: IGROV1 ovarian
[16] = system: K-562 leukemia
[17] = system: KM12 colon
[18] = system: LOX IMVI melanoma
[19] = system: M14 melanoma
[20] = system: MALME-3M melanoma
[21] = system: MCF7 breast
[22] = system: MDA-MB-231 breast
[23] = system: MDA-MB-435
[24] = system: MDA-N
[25] = system: MOLT-4 leukemia
[26] = system: NCI-H23 lung
[27] = system: NCI-H460 lung
[28] = system: NCI-H522 lung
[29] = system: NCI/ADR-RES ovarian
[30] = system: OVCAR-3 ovarian
[31] = system: OVCAR-4 ovarian
[32] = system: OVCAR-5 ovarian
[33] = system: OVCAR-8 ovarian
[34] = system: PC-3 prostate
[35] = system: RPMI-8226 leukemia
[36] = system: SF-268 CNS
[37] = system: SF-295 CNS
[38] = system: SF-539 CNS
[39] = system: SK-MEL-2 melanoma
[40] = system: SK-MEL-28 melanoma
[41] = system: SK-MEL-5 melanoma
[42] = system: SK-OV-3 ovarian
[43] = system: SN12C renal
[44] = system: SNB-19 CNS
[45] = system: SNB-75 CNS
[46] = system: SR leukemia
[47] = system: SW-620 colon
[48] = system: T-47D breast
[49] = system: TK-10 renal
[50] = system: U251 CNS
[51] = system: UACC-257 melanoma
[52] = system: UACC-62 melanoma
[53] = system: UO-31 renal
[54] = system: 786-0 renal
[55] = system: EKVX NSCLC
[56] = system: HCC-2998 colon
[57] = system: HCT-116 colon
[58] = system: NCI-H226 lung

O=C(Cc1nc2cccnc2nc1/C=C(\O)c1ccccc1)c1ccccc1
TGI [1]: 74 µM | TGI [2]: > 100 µM | TGI [3]: > 100 µM | TGI [4]: 38.4 µM | TGI [5]: 30.5 µM | TGI [6]: 29.9 µM | TGI [7]: 25.1 µM | TGI [8]: > 100 µM | TGI [9]: > 100 µM | TGI [10]: 66.6 µM | TGI [11]: 58.4 µM | TGI [12]: 59 µM | TGI [13]: > 100 µM | TGI [14]: > 100 µM | TGI [15]: > 100 µM | TGI [16]: > 100 µM | TGI [17]: > 100 µM | TGI [18]: 87 µM | TGI [19]: > 100 µM | TGI [20]: > 100 µM | TGI [21]: 27.6 µM | TGI [22]: > 100 µM | TGI [23]: 82 µM | TGI [24]: > 100 µM | TGI [25]: > 100 µM | TGI [26]: > 100 µM | TGI [27]: 22.7 µM | TGI [28]: 35.6 µM | TGI [29]: > 100 µM | TGI [30]: 13.3 µM | TGI [31]: > 100 µM | TGI [32]: > 100 µM | TGI [33]: > 100 µM | TGI [34]: > 100 µM | TGI [35]: 29 µM | TGI [36]: 46 µM | TGI [37]: 82.1 µM | TGI [38]: > 100 µM | TGI [39]: 65.4 µM | TGI [40]: > 100 µM | TGI [41]: 38 µM | TGI [42]: > 100 µM | TGI [43]: 59.1 µM | TGI [44]: > 100 µM | TGI [45]: 96.4 µM | TGI [46]: > 100 µM | TGI [47]: > 100 µM | TGI [48]: > 100 µM | TGI [49]: > 100 µM | TGI [50]: > 100 µM | TGI [51]: > 100 µM | TGI [52]: 18.6 µM | TGI [53]: 79.6 µM

Cc1cc(C)n(-c2nc3ccccc3c(=O)[nH]2)n1
TGI [54]: 19.6 µM | TGI [1]: > 63.8 µM | TGI [2]: > 35.5 µM | TGI [3]: 21.8 µM | TGI [4]: > 100 µM | TGI [5]: 37.5 µM | TGI [6]: > 100 µM | TGI [7]: 17.1 µM | TGI [8]: 21.3 µM | TGI [55]: 28.9 µM | TGI [56]: 31.3 µM | TGI [57]: 21.6 µM | TGI [9]: 23.9 µM | TGI [10]: > 33.7 µM | TGI [11]: > 43.7 µM | TGI [12]: > 68.3 µM | TGI [13]: > 91.5 µM | TGI [14]: > 100 µM | TGI [15]: 12.4 µM | TGI [16]: > 100 µM | TGI [17]: 23.1 µM | TGI [18]: 13.7 µM | TGI [19]: > 100 µM | TGI [21]: > 100 µM | TGI [22]: 25.3 µM | TGI [23]: 26.9 µM | TGI [24]: > 76.9 µM | TGI [25]: 50.5 µM | TGI [58]: > 66.8 µM | TGI [26]: 32.8 µM | TGI [27]: > 49.3 µM | TGI [28]: 18.8 µM | TGI [29]: 13.9 µM | TGI [30]: > 45 µM | TGI [31]: > 100 µM | TGI [32]: > 100 µM | TGI [34]: 25.8 µM | TGI [35]: > 41.9 µM | TGI [36]: > 47.1 µM | TGI [37]: > 50.7 µM | TGI [38]: > 75 µM | TGI [39]: 32.2 µM | TGI [40]: > 41.2 µM | TGI [41]: 17.8 µM | TGI [42]: > 100 µM | TGI [43]: > 100 µM | TGI [44]: > 72.1 µM | TGI [45]: > 71.6 µM | TGI [46]: > 29.5 µM | TGI [47]: 38.9 µM | TGI [48]: 48.8 µM | TGI [49]: > 100 µM | TGI [50]: > 45.5 µM | TGI [51]: > 100 µM | TGI [52]: 21.3 µM | TGI [53]: 36.8 µM
